# Assay results published in patent US5958981A, “γ-diketone compounds with inhibitory activity against platelet aggregation” (Meiji Seika Kabushiki Kaisha, priority 1994, dated 1999).
# Counter-ions that a name gives are not always drawn.
# Test system: human PRP (platelet rich plasma), platelet aggregation
# Assay: Inhibitory activity against ADP-induced platelet aggregation in human PRP (platelet rich plasma)
# Assay type: cell-based
# Conditions: aggregation inducer ADP final concentration 5 μM, preincubated 2 min
# Description: Pharmacological Test: Inhibitory activity against platelet aggregation
# The inhibitory activity of the compound according to the present invention against platelet aggregation was examined with human PRP (platelet rich plasma).
# Nine volumes of a blood sample was taken out of the vein of a normal human with a syringe in which one volume of a 3.8% sodium citrate solution was charged. The blood sample was centrifuged at 170×g at room temperature for 10 min. The supernatant thus obtained was isolated as PRP. The residual blood sample that PRP had been taken out was centrifuged at 2,700×g for 15 minutes. The supernatant was then taken as platelet poor plasma (PPP).
# A platelet aggregation test was conducted with an aggligometer (PAM-8C, manufactured by MEBANICKS Co., Ltd.). Compounds under test were dissolved in a 50% DMSO saline, a 50% methanol saline, or physiological saline. The compound under test and PRP were preincubated for 2 min. An aggregation inducer ADP (CHRONO-PAR REAGENTS 384 ADP, CHRONO-LOG Corp.) was used in the form of a dilution with saline so that the final concentration is 5 μM.
# The anti-platelet aggregation activity was determined as an inhibition rate to platelet aggregation effect of ADP in the absence of a compound under test as follows. [formula]
row,SMILES,IC50
1,"CCCCOC(=O)COc1ccc(C(=O)CCC(=O)c2cc3c(s2)CCNC3)cc1OCC(=O)OCCCC [Example 2, Di-n-butyl [[4-[1,4-dioxo-4-(4,5,6,7-tetrahydrothieno[3,2-c]pyridin-2-yl)butan-1-yl]-1,2-phenylene]dioxy]diacetate hydrochloride]",2000 nM
2,"N=C(N)c1ccc(C(=O)CCC(=O)c2ccc(OCC(=O)O)c(OCC(=O)O)c2)cc1 [Example 3, [[4-[4-(4-Amidinophenyl)-1,4-dioxobutan-1-yl]-1,2-phenylene]dioxy]diacetic acid trifluoroacetate]",17 nM
3,"O=C(O)COc1ccc(C(=O)CCC(=O)c2cc3c(s2)CCNC3)cc1OCC(=O)O [Example 1, [[4-[1,4-Dioxo-4-(4,5,6,7-tetrahydrothieno[3,2-c]pyridin-2-yl)butan-1-yl]-1,2-phenylene]dioxy]diacetic acid trifluoroacetate]",130 nM
4,"CCCCOC(=O)COc1ccc(C(=O)CCC(=O)c2ccc(C(=N)N)cc2)cc1OCC(=O)OCCCC [Example 4, Di-n-butyl [[4-[4-(4-amidinophenyl)-1,4-dioxobutan-1-yl]-1,2-phenylene]dioxy]diacetate trifluoroacetate]",23 nM
5,"N=C(N)c1ccc(C(=O)CCC(=O)c2ccc(OCC(=O)O)cc2)cc1 [Example 6, 4-[4-(4-Amidinophenyl)-1,4-dioxobutan-1-yl]phenoxyacetic acid hydrochloride]",< 100 nM
6,"CCCCOC(=O)COc1ccc(C(=O)CCC(=O)c2ccc(C(=N)N)cc2)cc1 [Example 5, n-Butyl 4-[4-(4-amidinophenyl)-1,4-dioxobutan-1-yl]phenoxyacetate hydroiodide]",43 nM
